# Columns and labels:
# [1] = molecular target: T1, Transient receptor potential cation channel subfamily V member 1 (Rattus norvegicus, UniProt O35433); assay: Antagonist activity towards rat TRPV1 expressed in CHO cells; assay type: functional, cell-based
# [2] = molecular target: T1, Transient receptor potential cation channel subfamily V member 1; assay: In vitro inhibition of [3H]RTX binding to rat TRPV1 expressed in CHO cells; assay type: cell-based
# [3] = molecular target: T1, Transient receptor potential cation channel subfamily V member 1; assay: Induction of [Ca2+] uptake in CHO cells expressing rat TRPV1 at 10-30 uM relative to 300 nM capsaicin; Not effective; assay type: functional, cell-based
# [4] = molecular target: T1, Transient receptor potential cation channel subfamily V member 1; assay: Antagonist activity towards rat TRPV1 expressed in CHO cells; Not effective; assay type: functional, cell-based
# [5] = molecular target: T1, Transient receptor potential cation channel subfamily V member 1; assay: Induction of [Ca2+] uptake in CHO cells expressing rat TRPV1 at 10-30 uM relative to 300 nM capsaicin; Weakly effective; assay type: functional, cell-based
# [6] = molecular target: T1, Transient receptor potential cation channel subfamily V member 1; assay: Induction of [Ca2+] uptake in CHO cells expressing rat TRPV1 relative to 300 nM capsaicin; assay type: functional, cell-based
# T1 sequence (O35433 whole entry): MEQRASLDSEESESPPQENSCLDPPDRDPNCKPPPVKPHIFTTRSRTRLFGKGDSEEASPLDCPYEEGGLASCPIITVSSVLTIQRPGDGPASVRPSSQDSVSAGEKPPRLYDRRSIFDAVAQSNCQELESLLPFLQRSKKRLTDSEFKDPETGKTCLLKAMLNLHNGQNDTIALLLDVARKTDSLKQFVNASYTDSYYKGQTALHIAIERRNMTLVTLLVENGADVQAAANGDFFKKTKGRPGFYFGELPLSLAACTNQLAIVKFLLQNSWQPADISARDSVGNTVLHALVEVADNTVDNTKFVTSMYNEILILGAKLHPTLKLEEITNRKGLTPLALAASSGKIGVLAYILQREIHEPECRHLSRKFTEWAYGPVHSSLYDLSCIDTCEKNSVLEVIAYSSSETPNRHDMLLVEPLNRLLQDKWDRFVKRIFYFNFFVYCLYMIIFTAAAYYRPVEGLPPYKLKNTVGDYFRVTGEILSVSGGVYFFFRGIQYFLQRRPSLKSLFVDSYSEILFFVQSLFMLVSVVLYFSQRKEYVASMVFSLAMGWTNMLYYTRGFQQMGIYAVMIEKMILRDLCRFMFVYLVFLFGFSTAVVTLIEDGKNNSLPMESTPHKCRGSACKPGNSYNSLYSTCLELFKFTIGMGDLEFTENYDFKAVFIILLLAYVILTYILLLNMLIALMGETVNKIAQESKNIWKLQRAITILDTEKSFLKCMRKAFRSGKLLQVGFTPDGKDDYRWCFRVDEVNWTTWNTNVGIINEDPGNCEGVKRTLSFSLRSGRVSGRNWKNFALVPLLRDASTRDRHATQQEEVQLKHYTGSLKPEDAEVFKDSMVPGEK
SMILES,Ki [1] [nM],Ki [2] [nM],EC50 [3],also measured
CC(C)(C)c1ccc(CNC(=O)Cc2ccc(NS(C)(=O)=O)cc2)cc1,398,2100,Not Active,–
CC(C)(C)c1ccc(C/N=C(\S)N(O)Cc2ccc(NS(C)(=O)=O)cc2)cc1,470,–,Not Active,–
CC(C)(C)c1ccc(CC(=O)N(O)Cc2ccc(NS(C)(=O)=O)cc2)cc1,–,–,–,Ki [4]: Not Active
CC(C)(C)c1ccc(C/N=C(\S)NNc2ccc(NS(C)(=O)=O)cc2)cc1,1460,–,Not Active,–
CC(C)(C)c1ccc(CC(=O)NCc2ccc(NS(C)(=O)=O)cc2)cc1,6760,5220,–,efficacy [5]: 20%
CC(C)(C)c1ccc(CNC(=O)N(O)Cc2ccc(NS(C)(=O)=O)cc2)cc1,–,–,–,Ki [4]: Not Active
CCCCCCCC/C=C\CCCCCCCCNC(=O)Cc1ccc(NS(C)(=O)=O)cc1,–,> 25000,Not Active,Ki [4]: Not Active
CC(C)(C)c1ccc(CN(O)/C(S)=N/Cc2ccc(NS(C)(=O)=O)c(F)c2)cc1,–,–,–,EC50 [6]: > 7060 nM; Ki [4]: Not Active
COc1cc(CO/C(S)=N/Cc2ccc(C(C)(C)C)cc2)ccc1NS(C)(=O)=O,110,461,Not Active,–
CC(C)(C)c1ccc(C/N=C(\S)OCc2ccc(NS(C)(=O)=O)c(F)c2)cc1,120,450,–,efficacy [5]: 7%
Cc1ccc(CCCNC(=O)Cc2ccc(NS(C)(=O)=O)c(F)c2)cc1C,4660,–,Not Active,–
CC(C)(C)c1ccc(CN(O)/C(S)=N/Cc2ccc(NS(C)(=O)=O)c([N+](=O)[O-])c2)cc1,635,–,Not Active,–
CC(C)(C)c1ccc(CNC(=O)NCc2ccc(NS(C)(=O)=O)cc2)cc1,225,2560,Not Active,–
COc1cc(C/N=C(\S)OCc2ccc(C(C)(C)C)cc2)ccc1NS(C)(=O)=O,8400,–,Not Active,–
Cc1ccc(CCCNC(=O)Cc2ccc(NS(C)(=O)=O)cc2)cc1C,13600,7180,Not Active,–
COc1cc(C/N=C(\S)N(O)Cc2ccc(C(C)(C)C)cc2)ccc1NS(C)(=O)=O,–,–,–,Ki [4]: Not Active
CC(C)(C)c1ccc(CO/C(S)=N/Cc2ccc(NS(C)(=O)=O)cc2)cc1,6250,4600,–,efficacy [5]: 13%
CC(C)(C)c1ccc(C/N=C(\S)OCc2ccc(NS(C)(=O)=O)cc2)cc1,222,772,Not Active,–
CC(C)(C)c1ccc(CNC(=S)NCc2ccc(NS(C)(=O)=O)cc2)cc1,–,–,Not Active,–
COc1cc(CNC(=S)NCc2ccc(C(C)(C)C)cc2)ccc1NS(C)(=O)=O,3.4,50.4,–,EC50 [5]: Partial agonist
CC(C)(C)c1ccc(CN(O)C(=O)Cc2ccc(NS(C)(=O)=O)cc2)cc1,6600,–,–,efficacy [5]: 30%
CC(C)(C)c1ccc(N/N=C(\S)NCc2ccc(NS(C)(=O)=O)cc2)cc1,2010,6400,Not Active,–
CC(C)(C)c1ccc(CN(O)/C(S)=N/Cc2ccc(NS(C)(=O)=O)cc2)cc1,470,–,–,efficacy [5]: 16%
CC(C)(C)c1ccc(CN(O)/C(S)=N/Cc2ccc(NS(C)(=O)=O)cc2Cl)cc1,–,2270,Not Active,Ki [4]: Not Active
CC(C)(C)c1ccc(CNC(=O)Cc2ccc(NS(C)(=O)=O)c(F)c2)cc1,118,472,Not Active,–
CC(C)(C)c1ccc(CNC(=S)NCc2ccc(NS(C)(=O)=O)c(F)c2)cc1,–,53.5,Not Active,–
CC(C)(C)c1ccc(CN(O)/C(S)=N/Cc2ccc(NS(C)(=O)=O)c(Cl)c2)cc1,579,1310,Not Active,–
Oc1cc2c(cc1O)CN(C(=S)NCCc1ccc(Cl)cc1)CCC2 [CAPSAZEPINE],–,–,Not Active,–

# — ChEMBL document CHEMBL1142823, “Analysis of structure-activity relationships for the 'B-region' of N-(4-t-butylbenzyl)-N'-[4-(methylsulfonylamino)benzyl]-thiourea analogues as TRPV1 antagonists” (Bioorg Med Chem Lett, 2005)
